Calls of active or inactive are those of the source. The calls are words filed in the database; no cut-off is given here.
Key:
[1] = biological target: Dual specificity tyrosine-phosphorylation-regulated kinase 1A (Homo sapiens, UniProt Q13627); assay: Inhibition of DYRK1A (unknown origin) using HT-497 as substrate preincubated with compound followed by substrate addition and measured after 30 mins in the presence of ATP by ELISA analysis
Mus musculus [2] = organism: Mus musculus; assay: Anti-inflammatory activity in MOG (35 to 55 residues)-induced experimental autoimmune encephalomyelitis mouse model assessed as reduction in spinal cord axonal neurodegeneration severity score by Bielschowsky silver staining based light microscopic analysis; assay type: functional, organism-based
Mus musculus [3] = organism: Mus musculus; assay: Anti-inflammatory activity in MOG (35 to 55 residues)-induced experimental autoimmune encephalomyelitis mouse model assessed as reduction in spinal cord demyelination severity score by Luxol fast blue staining based light microscopic analysis; assay type: functional, organism-based
Mus musculus [4] = organism: Mus musculus; assay: Anti-inflammatory activity in MOG (35 to 55 residues)-induced experimental autoimmune encephalomyelitis mouse model assessed as reduction in spinal cord inflammation severity score by H&E staining based light microscopic analysis; assay type: functional, organism-based
Mus musculus [5] = assay: Anti-inflammatory activity in MOG (35 to 55 residues)-induced experimental autoimmune encephalomyelitis mouse model assessed as reversal of clinical scores at 1 mg/kg, INH administered once daily for 25 days; assay type: functional, organism-based; conditions: time 25.0 day
Mus musculus [6] = assay: Anti-inflammatory activity in MOG (35 to 55 residues)-induced experimental autoimmune encephalomyelitis mouse model assessed as reduction in brain IL-17 level at 15 mg/kg, INH; assay type: functional; design: scale not given: the % may be the effect or the level left
Mus musculus [7] = assay: Anti-inflammatory activity in MOG (35 to 55 residues)-induced experimental autoimmune encephalomyelitis mouse model assessed as reduction in spinal cord demyelination severity score at 15 mg/kg, INH by Luxol fast blue staining based light microscopic analysis; assay type: functional, organism-based
Mus musculus [8] = assay: Anti-inflammatory activity in MOG (35 to 55 residues)-induced experimental autoimmune encephalomyelitis mouse model assessed as reduction in spinal cord inflammation severity score at 15 mg/kg, INH by H&E staining based light microscopic analysis; assay type: functional, organism-based
Mus musculus [9] = assay: Anti-inflammatory activity in MOG (35 to 55 residues)-induced experimental autoimmune encephalomyelitis mouse model assessed as reduction in brain TNFalpha level at 15 mg/kg, INH; assay type: functional, organism-based
Mus musculus [10] = assay: Anti-inflammatory activity in MOG (35 to 55 residues)-induced experimental autoimmune encephalomyelitis mouse model assessed as reversal of clinical scores at 15 mg/kg, INH administered twice daily for 25 days; assay type: functional, organism-based; conditions: time 25.0 day
Mus musculus [11] = assay: Anti-inflammatory activity in MOG (35 to 55 residues)-induced experimental autoimmune encephalomyelitis mouse model assessed as reduction in spinal cord axonal neurodegeneration severity score at 15 mg/kg, INH by Bielschowsky silver staining based light microscopic analysis; assay type: functional, organism-based
Mus musculus [12] = assay: Anti-inflammatory activity in MOG (35 to 55 residues)-induced experimental autoimmune encephalomyelitis mouse model assessed as reduction in brain IFNgamma level at 15 mg/kg, INH; assay type: functional; design: scale not given: the % may be the effect or the level left
[13] = Oral bioavailability in Sprague-Dawley rat at 100 mg/kg; assay type: ADME, organism-based; conditions: in vivo
[14] = Bioavailability in CF-1 mouse at 163.8 micromol/kg, IG measured upto 720 mins; assay type: ADME, organism-based; conditions: in vivo, po, 163.8 µmol/kg

Structure (SMILES)	IC50 [1] [nM]	also measured
COc1c(O)cc([C@@H]2Oc3cc(O)cc(O)c3C[C@H]2OC(=O)c2cc(O)c(O)c(O)c2)cc1O	5800	–
COc1c(O)cc(C(=O)O[C@@H]2Cc3c(O)cc(O)cc3O[C@H]2c2cc(O)c(O)c(O)c2)cc1O	25100	–
COc1cc(C(=O)O[C@@H]2Cc3c(O)cc(O)cc3O[C@@H]2c2cc(O)c(O)c(O)c2)cc(O)c1O	429	–
O=C(O[C@@H]1Cc2c(O)cccc2O[C@H]1c1cc(O)c(O)c(O)c1)c1cc(O)c(O)c(O)c1 (racemic)	212	–
Cc1c([C@@H]2Oc3cc(O)cc(O)c3C[C@H]2OC(=O)c2cc(O)c(O)c(O)c2)cc(O)c(O)c1O	296	–
O=C(O[C@@H]1Cc2c(O)cc(O)cc2O[C@H]1c1ccc(O)c(O)c1)c1cc(O)c(O)c(O)c1 [(-)-CATECHINGALLATE]	220	–
CCCCCCCCc1ccc(CCC(N)(CO)CO)cc1	–	Activity (Mus musculus [2]): Active; Activity (Mus musculus [3]): Active; Activity (Mus musculus [4]): Active; Activity (Mus musculus [5]): Active
O=C(O[C@@H]1Cc2ccccc2O[C@H]1c1cc(O)c(O)c(O)c1)c1cc(O)c(O)c(O)c1 (racemic)	422	–
O=C(O[C@@H]1Cc2c(O)cc(O)cc2O[C@@H]1c1ccc(O)c(O)c1)c1cc(O)c(O)c(O)c1 [EPICATECHIN GALLATE]	523	–
Cc1c(C(=O)O[C@@H]2Cc3c(O)cc(O)cc3O[C@H]2c2cc(O)c(O)c(O)c2)ccc(O)c1O	553	–
O=C(O[C@@H]1Cc2c(O)cc(O)cc2O[C@H]1c1cc(O)c(O)c(O)c1)c1cc(O)c(O)cc1C(F)(F)F	432	–
O=C(O[C@@H]1Cc2c(O)cc(O)cc2O[C@H]1c1cc(O)c(O)c(O)c1)c1cc(O)c(O)cc1O	172	–
O=C(O[C@@H]1Cc2ccccc2C[C@H]1c1cc(O)c(O)c(O)c1)c1cc(O)c(O)c(O)c1 (racemic)	1050	–
O=C(O[C@@H]1Cc2c(O)cc(O)cc2O[C@H]1c1cc(O)c(O)c(O)c1)c1ccc(O)c(O)c1	236	–
O=C(O[C@@H]1Cc2c(O)cc(O)cc2O[C@@H]1c1cc(O)c(O)c(O)c1)c1cc(O)c(O)c(O)c1 [EPIGALOCATECHIN GALLATE]	232	bioavailability [13]: ≤ 5%; bioavailability [14]: 12%

The next lines start with results.

IC50 [1] [nM]	Structure (SMILES)	also measured
108	O=C(O[C@@H]1Cc2c(O)cc(O)cc2O[C@H]1c1cc(O)c(O)c(O)c1)c1ccc(O)c(O)c1O	–
74	O=C(O[C@@H]1Cc2c(O)cc(O)cc2O[C@H]1c1ccc(O)c(O)c1)c1cc(O)c(O)c(O)c1F (racemic)	–
60	O=C(O[C@@H]1Cc2c(O)cc(O)cc2O[C@H]1c1cc(O)c(O)c(O)c1F)c1cc(O)c(O)c(O)c1	–
54	O=C(O[C@@H]1Cc2c(O)cc(O)cc2O[C@H]1c1cc(O)c(O)c(O)c1F)c1cc(O)c(O)c(O)c1F	–
107	O=C(O[C@@H]1Cc2c(O)cc(O)cc2O[C@H]1c1cc(O)c(O)c(O)c1)c1cc(O)c(O)cc1F	–
115	O=C(O[C@@H]1Cc2c(O)cc(O)cc2O[C@H]1c1cc(O)c(O)cc1F)c1cc(O)c(O)c(O)c1F	–
145	O=C(O[C@@H]1Cc2c(O)cc(O)cc2O[C@H]1c1cc(O)c(O)c(O)c1)c1cc(O)c(O)c(F)c1	–
35	O=C(O[C@@H]1Cc2c(O)cc(O)cc2O[C@H]1c1cc(O)c(O)c(O)c1)c1cc(O)c(O)c(O)c1F	Activity (Mus musculus [6]): 79%; Activity (Mus musculus [7]): Active; Activity (Mus musculus [8]): Active; Activity (Mus musculus [9]): Active; Activity (Mus musculus [10]): Active; Activity (Mus musculus [11]): Active; Activity (Mus musculus [12]): 90%
153	O=C(O[C@@H]1Cc2c(O)cc(O)cc2O[C@H]1c1cc(O)c(O)cc1F)c1cc(O)c(O)c(O)c1	–

From ChEMBL document CHEMBL5143627, “Design, synthesis, and biological evaluation of polyphenol derivatives as DYRK1A inhibitors. The discovery of a potentially promising treatment for Multiple Sclerosis” (Bioorg Med Chem Lett, 2022)
